Measurements from patent publication US20080234266A1, “Squaric Acid Derivatives II” (priority 2005, published 2008).

Target: T1, CHK1 kinase (Homo sapiens, UniProt O14757)
T1 construct: glutathione S-transferase (GST); made in house; host or cells: Sf21 insect cells (S. frugiperda), baculovirus
T1 sequence (O14757 1-476): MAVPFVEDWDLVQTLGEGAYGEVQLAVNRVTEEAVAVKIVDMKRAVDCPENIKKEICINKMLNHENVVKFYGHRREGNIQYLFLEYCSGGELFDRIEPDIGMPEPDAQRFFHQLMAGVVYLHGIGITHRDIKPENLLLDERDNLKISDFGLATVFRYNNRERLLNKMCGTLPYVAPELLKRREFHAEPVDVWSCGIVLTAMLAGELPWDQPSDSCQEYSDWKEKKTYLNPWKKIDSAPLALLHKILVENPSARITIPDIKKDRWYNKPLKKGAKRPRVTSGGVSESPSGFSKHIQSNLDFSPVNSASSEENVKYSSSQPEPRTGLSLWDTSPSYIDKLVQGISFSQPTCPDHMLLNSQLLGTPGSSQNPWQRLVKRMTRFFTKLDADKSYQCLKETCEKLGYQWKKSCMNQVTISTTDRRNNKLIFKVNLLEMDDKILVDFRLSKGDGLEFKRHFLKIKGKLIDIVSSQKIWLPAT
Assay: Flashplate method (CHK1), measurement of the CHK1 kinase activity
Format: biochemical
Conditions: class symbols; 'Affinity to receptors'
Method in brief: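 GST-tagged CHK1 expressed in Sf21 insect cells, incubated at 30 °C with biotinylated CHKtide (0.15 μg per well) and γ33P-ATP in pH 7.5 buffer (EGTA, Mg acetate, mercaptoethanol, 0.1% BSA). Stopped with EDTA, captured on streptavidin Flashplates and counted by scintillation. IC50 set against uninhibited reaction and 0.1 μM staurosporine as zero.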

Row | SMILES | IC50
1 | CS(=O)(=O)NCCOc1cccc(CNc2c(Nc3ccc4[nH]cnc4c3)c(=O)c2=O)c1 [Compound A110, 3-(1H-benzimidazol-5-ylamino)-4-[3-(2-methylsulfonylaminoethoxy)benzylamino]-cyclobut-3-ene-1,2-dione] | > 1 µM
2 | CCCCc1c(Nc2c(NCc3cccc(O)c3)c(=O)c2=O)ccc2[nH]cnc12 [Compound A111, 3-(4-butyl-1H-benzimidazol-5-ylamino)-4-(3-hydroxybenzylamino)cyclobut-3-ene-1,2-dione] | > 1 µM
3 | O=C(CC(Nc1c(Nc2ccc3[nH]cnc3c2)c(=O)c1=O)c1cccc(O)c1)N1CCNCC1 (stereo not shown) [Compound A112, 3-(1H-benzimidazol-5-ylamino)-4-[1-(3-hydroxyphenyl)-3-oxo-3-piperazin-1-ylpropyl-amino]cyclobut-3-ene-1,2-dione] | < 1 µM
4 | CN(C)CCNC(=O)CC(Nc1c(Nc2ccc3[nH]cnc3c2)c(=O)c1=O)c1cccc(O)c1 (stereo not shown) [Compound A113, 3-[2-(1H-benzimidazol-5-ylamino)-3,4-dioxo-cyclobut-1-enylamino]-N-(2-dimethylamino-ethyl)-3-(3-hydroxyphenyl)propionamide] | > 1 µM
5 | CC[C@@H](Nc1c(Nc2ccc3[nH]cnc3c2)c(=O)c1=O)c1cccc(OC)c1 [Compound A114, 3-(1H-benzimidazol-5-ylamino)-4-[(R)-1-(3-methoxyphenyl)propylamino]cyclobut-3-ene-1,2-dione] | > 1 µM
6 | CC[C@H](Nc1c(Nc2ccc3[nH]cnc3c2)c(=O)c1=O)c1cccc(OC)c1 [Compound A115, 3-(1H-benzimidazol-5-ylamino)-4-[(S)-1-(3-methoxyphenyl)propylamino]cyclobut-3-ene-1,2-dione] | > 1 µM
7 | COc1cccc(CNc2c(Nc3ccc4[nH]cnc4c3)c(=O)c2=O)c1 [Compound A116, 3-(1H-benzimidazol-5-ylamino)-4-(3-methoxybenzylamino)cyclobut-3-ene-1,2-dione] | < 1 µM
8 | COCCNC(=O)CC(Nc1c(Nc2ccc3[nH]cnc3c2)c(=O)c1=O)c1cccc(O)c1 (stereo not shown) [Compound A117, 3-[2-(1H-benzimidazol-5-ylamino)-3,4-dioxo-cyclobut-1-enylamino]-3-(3-hydroxyphenyl)-N-(2-methoxyethyl)propionamide] | > 1 µM
9 | O=c1c(NCc2cccc(O)c2)c(Nc2cc(Cl)c3[nH]cnc3c2)c1=O [Compound A118, 3-(7-chloro-1H-benzimidazol-5-ylamino)-4-(3-hydroxybenzylamino)cyclobut-3-ene-1,2-dione] | < 1 µM
10 | O=c1c(NCc2cccc(O)c2)c(Nc2ccc3scnc3c2)c1=O [Compound A119, 3-(benzothiazol-5-ylamino)-4-(3-hydroxy-benzylamino)cyclobut-3-ene-1,2-dione] | > 1 µM
11 | CC[C@@H](Nc1c(Nc2ccc3[nH]cnc3c2)c(=O)c1=O)c1cccc(O)c1 [Compound A120, 3-(1H-benzimidazol-5-ylamino)-4-[(R)-1-(3-hydroxyphenyl)propylamino]cyclobut-3-ene-1,2-dione] | < 1 µM
12 | COc1cccc(CNc2c(Nc3ccc4ncsc4c3)c(=O)c2=O)c1 [Compound A122, 3-(benzothiazol-6-ylamino)-4-(3-methoxy-benzylamino)cyclobut-3-ene-1,2-dione] | > 1 µM
13 | O=c1c(NCc2ccc3c(c2)OCO3)c(Nc2ccc3[nH]cnc3c2)c1=O [Compound A123, 3-[(benzo[1,3]dioxol-5-ylmethyl)amino]-4-(1H-benzimidazol-5-ylamino)cyclobut-3-ene-1,2-dione] | > 1 µM
14 | CCN(CC)c1c(Nc2c(NCc3cccc(O)c3)c(=O)c2=O)cc(C(F)(F)F)c2[nH]cnc12 [Compound A124, 3-(4-diethylamino-7-trifluoromethyl-1H-benzimidazol-5-ylamino)-4-(3-hydroxy-benzylamino)cyclobut-3-ene-1,2-dione] | > 1 µM
15 | O=c1c(NCc2cccc(B(O)O)c2)c(Nc2ccc3[nH]cnc3c2)c1=O [Compound A125, 3-{[2-(1H-benzimidazol-5-ylamino)-3,4-dioxo-cyclobut-1-enylamino]methyl}phenylboronic acid] | > 1 µM
16 | Cc1cc2[nH]cnc2cc1Nc1c(NCc2cccc(O)c2)c(=O)c1=O [Compound A126, 3-(3-hydroxybenzylamino)-4-(6-methyl-1H-benzimidazol-5-ylamino)cyclobut-3-ene-1,2-dione] | > 1 µM
17 | CC(=O)c1cccc(CNc2c(Nc3ccc4[nH]cnc4c3)c(=O)c2=O)c1 [Compound A127, 3-(1H-benzimidazol-5-ylamino)-4-(3-acetyl-benzylamino)cyclobut-3-ene-1,2-dione] | > 1 µM
18 | COC(=O)Nc1cccc(CNc2c(Nc3ccc4[nH]cnc4c3)c(=O)c2=O)c1 [Compound A128, 3-(1H-benzimidazol-5-ylamino)-4-(3-methoxycarbonylaminobenzylamino)-cyclobut-3-ene-1,2-dione] | > 1 µM
19 | O=c1c(NCc2cccc(O)c2)c(Nc2cc3nc[nH]c3cc2F)c1=O [Compound A129, 3-(6-fluoro-1H-benzimidazol-5-ylamino)-4-(3-hydroxybenzylamino)cyclobut-3-ene-1,2-dione] | > 1 µM
20 | O=C(O)c1cccc(CNc2c(Nc3ccc4[nH]cnc4c3)c(=O)c2=O)c1 [Compound A130, 3-(1H-benzimidazol-5-ylamino)-4-(3-carboxy-benzylamino)cyclobut-3-ene-1,2-dione] | > 1 µM
21 | CS(=O)(=O)c1cccc(CNc2c(Nc3ccc4[nH]cnc4c3)c(=O)c2=O)c1 [Compound A131, 3-(1H-benzimidazol-5-ylamino)-4-(3-methyl-sulfonylbenzylamino)cyclobut-3-ene-1,2-dione] | > 1 µM

The remaining lines, values ahead:

Row | IC50 | SMILES
22 | > 1 µM | CS(=O)(=O)Oc1cccc(CNc2c(Nc3ccc4[nH]cnc4c3)c(=O)c2=O)c1 [Compound A132, 3-(1H-benzimidazol-5-ylamino)-4-(3-methyl-sulfonyloxybenzylamino)cyclobut-3-ene-1,2-dione]
23 | > 1 µM | O=c1c(NCc2cccc(OS(=O)(=O)C(F)(F)F)c2)c(Nc2ccc3[nH]cnc3c2)c1=O [Compound A133, 3-(1H-benzimidazol-5-ylamino)-4-(3-trifluoro-methylsulfonyloxybenzylamino)cyclobut-3-ene-1,2-dione]
24 | > 1 µM | O=CNc1cccc(CNc2c(Nc3ccc4[nH]cnc4c3)c(=O)c2=O)c1 [Compound A134, 3-(1H-benzimidazol-5-ylamino)-4-(3-formyl-aminobenzylamino)cyclobut-3-ene-1,2-dione]
25 | > 1 µM | O=c1c(NCc2cccc3[nH]ccc23)c(Nc2ccc3[nH]cnc3c2)c1=O [Compound A135, 3-(1H-benzimidazol-5-ylamino)-4-[(1H-indol-4-ylmethyl)amino]cyclobut-3-ene-1,2-dione]
26 | > 1 µM | O=c1c(NCc2cc(O)ccc2F)c(Nc2ccc3[nH]cnc3c2)c1=O [Compound A136, 3-(1H-benzimidazol-5-ylamino)-4-(2-fluoro-5-hydroxybenzylamino)cyclobut-3-ene-1,2-dione]
27 | > 1 µM | O=c1c(NCc2ccc3cc[nH]c3c2)c(Nc2ccc3[nH]cnc3c2)c1=O [Compound A137, 3-(1H-benzimidazol-5-ylamino)-4-[(1H-indol-6-ylmethyl)amino]cyclobut-3-ene-1,2-dione]
28 | > 1 µM | COc1cccc(C(CCC2OCCCO2)Nc2c(Nc3ccc4[nH]cnc4c3)c(=O)c2=O)c1 (stereo not shown) [Compound A138, 3-(1H-benzimidazol-5-ylamino)-4-[3-[1,3]-dioxan-2-yl-1-(3-methoxyphenyl)propyl-amino]cyclobut-3-ene-1,2-dione]
29 | > 1 µM | O=c1c(NCc2ccc(O)cc2)c(Nc2ccc3[nH]cnc3c2)c1=O [Compound A139, 3-(1H-benzimidazol-5-ylamino)-4-(4-hydroxy-benzylamino)cyclobut-3-ene-1,2-dione]
30 | > 1 µM | O=c1c(NCCc2ccc(O)cc2)c(Nc2ccc3[nH]cnc3c2)c1=O [Compound A140, 3-(1H-benzimidazol-5-ylamino)-4-[2-(4-hydroxyphenyl)ethylamino]cyclobut-3-ene-1,2-dione]
31 | > 1 µM | CN1CCN(c2ccc(CNc3c(Nc4ccc5[nH]cnc5c4)c(=O)c3=O)cc2)CC1 [Compound A141, 3-(1H-benzimidazol-5-ylamino)-4-[4-(4-methylpiperazin-1-yl)benzylamino]cyclobut-3-ene-1,2-dione]
32 | > 1 µM | O=c1c(NCCc2cccc(O)c2)c(Nc2ccc3[nH]cnc3c2)c1=O [Compound A142, 3-(1H-benzimidazol-5-ylamino)-4-[2-(3-hydroxyphenyl)ethylamino]cyclobut-3-ene-1,2-dione]
33 | > 1 µM | COc1ccccc1CCNc1c(Nc2ccc3[nH]cnc3c2)c(=O)c1=O [Compound A143, 3-(1H-benzimidazol-5-ylamino)-4-[2-(2-methoxyphenyl)ethylamino]cyclobut-3-ene-1,2-dione]
34 | > 1 µM | COc1ccccc1CNc1c(Nc2ccc3[nH]cnc3c2)c(=O)c1=O [Compound A144, 3-(1H-benzimidazol-5-ylamino)-4-(2-methoxybenzylamino)cyclobut-3-ene-1,2-dione]
